Reference: ChEMBL document CHEMBL4138123, “Design, synthesis and biological evaluation of novel pyrazolochalcones as potential modulators of PI3K/Akt/mTOR pathway and inducers of apoptosis in breast cancer cells” (Eur J Med Chem, 2017)

What was measured:
Format in all cases: functional
CCRF-CEM [1] = assay: Cytotoxicity against human CCRF-CEM cells assessed as growth inhibition after 48 hrs by sulforhodamine B assay
K562 = assay: Cytotoxicity against human K562 cells assessed as growth inhibition after 48 hrs by sulforhodamine B assay; conditions: K562, 48 h
NCI-H226 = assay: Cytotoxicity against human NCI-H226 cells assessed as growth inhibition after 48 hrs by sulforhodamine B assay; conditions: NCI-H226, 48 h
SF-539 [2] = assay: Cytotoxicity against human SF539 cells assessed as growth inhibition after 48 hrs by sulforhodamine B assay; conditions: SF-539, 48 h
SK-MEL-2 = assay: Cytotoxicity against human SK-MEL-2 cells assessed as growth inhibition after 48 hrs by sulforhodamine B assay; conditions: SK-MEL-2, 48 h
UACC-62 [3] = assay: Cytotoxicity against human UACC62 cells assessed as growth inhibition after 48 hrs by sulforhodamine B assay; conditions: UACC-62, 48 h
OVCAR-4 = assay: Cytotoxicity against human OVCAR4 cells assessed as growth inhibition after 48 hrs by sulforhodamine B assay; conditions: OVCAR-4, 48 h
RXF 393 [4] = assay: Cytotoxicity against human RXF393 cells assessed as growth inhibition after 48 hrs by sulforhodamine B assay; conditions: RXF 393, 48 h
MDA-MB-231 = assay: Cytotoxicity against human MDA-MB-231 cells assessed as growth inhibition after 48 hrs by sulforhodamine B assay; conditions: MDA-MB-231, 48 h
BT-549 = assay: Cytotoxicity against human BT549 cells assessed as growth inhibition after 48 hrs by sulforhodamine B assay; conditions: BT-549, 48 h
CCRF-CEM [5] = assay: Cytotoxicity against human CCRF-CEM cells assessed as cell growth at 0.01 uM after 48 hrs by sulforhodamine B assay relative to control; conditions: read-out: Activity
SK-OV-3 = assay: Cytotoxicity against human SKOV3 cells assessed as cell growth at 0.01 uM after 48 hrs by sulforhodamine B assay relative to control; conditions: SK-OV-3, 48 h, read-out: Activity
IGROV-1 = assay: Cytotoxicity against human IGROV1 cells assessed as cell growth at 0.01 uM after 48 hrs by sulforhodamine B assay relative to control; conditions: IGROV-1, 48 h, read-out: Activity
SK-MEL-5 = assay: Cytotoxicity against human SK-MEL-5 cells assessed as cell growth at 0.01 uM after 48 hrs by sulforhodamine B assay relative to control; conditions: SK-MEL-5, 48 h, read-out: Activity
Malme-3M [6] = assay: Cytotoxicity against human MALME-3M cells assessed as cell growth at 0.01 uM after 48 hrs by sulforhodamine B assay relative to control; conditions: read-out: Activity
TK-10 = assay: Cytotoxicity against human TK10 cells assessed as cell growth at 0.01 uM after 48 hrs by sulforhodamine B assay relative to control; conditions: TK-10, 48 h, read-out: Activity
CCRF-CEM [7] = assay: Cytotoxicity against human CCRF-CEM cells assessed as cell growth at 0.1 uM after 48 hrs by sulforhodamine B assay relative to control; conditions: read-out: Activity
HCT-116 [8] = assay: Cytotoxicity against human HCT116 cells assessed as cell growth at 0.1 uM after 48 hrs by sulforhodamine B assay relative to control; conditions: HCT-116, 48 h, read-out: Activity
HCT-15 = assay: Cytotoxicity against human HCT15 cells assessed as cell growth at 0.1 uM after 48 hrs by sulforhodamine B assay relative to control; conditions: HCT-15, 48 h, read-out: Activity
SNB-19 [9] = assay: Cytotoxicity against human SNB19 cells assessed as cell growth at 0.1 uM after 48 hrs by sulforhodamine B assay relative to control; conditions: SNB-19, 48 h, read-out: Activity
UACC-257 = assay: Cytotoxicity against human UACC257 cells assessed as cell growth at 0.1 uM after 48 hrs by sulforhodamine B assay relative to control; conditions: UACC-257, 48 h, read-out: Activity
RXF 393 [10] = assay: Cytotoxicity against human RXF393 cells assessed as cell growth at 0.1 uM after 48 hrs by sulforhodamine B assay relative to control; conditions: RXF 393, 48 h, read-out: Activity
NCI-H522 [11] = assay: Cytotoxicity against human NCI-H522 cells assessed as cell growth at 1 uM after 48 hrs by sulforhodamine B assay relative to control; conditions: NCI-H522, 48 h, read-out: Activity
ACHN [12] = assay: Cytotoxicity against human ACHN cells assessed as cell growth at 1 uM after 48 hrs by sulforhodamine B assay relative to control; conditions: read-out: Activity
NCI-H322M [13] = assay: Cytotoxicity against human NCI-H322M cells assessed as cell growth at 10 uM after 48 hrs by sulforhodamine B assay relative to control; conditions: read-out: Activity
NCI-H522 [14] = assay: Cytotoxicity against human NCI-H522 cells assessed as cell growth at 10 uM after 48 hrs by sulforhodamine B assay relative to control; conditions: NCI-H522, 48 h, read-out: Activity
HCT-116 [15] = assay: Cytotoxicity against human HCT116 cells assessed as cell growth at 10 uM after 48 hrs by sulforhodamine B assay relative to control; conditions: HCT-116, 48 h, read-out: Activity
SF-539 [16] = assay: Cytotoxicity against human SF539 cells assessed as cell growth at 10 uM after 48 hrs by sulforhodamine B assay relative to control; conditions: SF-539, 48 h, read-out: Activity
SNB-19 [17] = assay: Cytotoxicity against human SNB19 cells assessed as cell growth at 10 uM after 48 hrs by sulforhodamine B assay relative to control; conditions: SNB-19, 48 h, read-out: Activity
Malme-3M [18] = assay: Cytotoxicity against human MALME-3M cells assessed as cell growth at 10 uM after 48 hrs by sulforhodamine B assay relative to control; conditions: read-out: Activity
UACC-62 [19] = assay: Cytotoxicity against human UACC62 cells assessed as cell growth at 10 uM after 48 hrs by sulforhodamine B assay relative to control; conditions: UACC-62, 48 h, read-out: Activity
ACHN [20] = assay: Cytotoxicity against human ACHN cells assessed as cell growth at 10 uM after 48 hrs by sulforhodamine B assay relative to control; conditions: read-out: Activity
HOP-62 = assay: Cytotoxicity against human HOP62 cells assessed as cell growth at 100 uM after 48 hrs by sulforhodamine B assay relative to control; conditions: HOP-62, 48 h, read-out: Activity
NCI-H322M [21] = assay: Cytotoxicity against human NCI-H322M cells assessed as cell growth at 100 uM after 48 hrs by sulforhodamine B assay relative to control; conditions: read-out: Activity
OVCAR-3 = assay: Cytotoxicity against human OVCAR3 cells assessed as cell growth at 100 uM after 48 hrs by sulforhodamine B assay relative to control; conditions: OVCAR-3, 48 h, read-out: Activity
RXF 393 [22] = assay: Cytotoxicity against human RXF393 cells assessed as cell growth at 100 uM after 48 hrs by sulforhodamine B assay relative to control; conditions: RXF 393, 48 h, read-out: Activity

With `COc1ccc(C(=O)/C=C/c2cc(-c3cc(OC)c(OC)c(OC)c3)n[nH]2)cc1OC` the LC50 (concentration killing 50% of cells) (CCRF-CEM [1]) was over 100 µM, the TGI (CCRF-CEM [1]) was 3.93 µM and the LC50 (concentration killing 50% of cells) (K562) was over 100 µM. For the same compound, the TGI (K562) was 7.12 µM, the TGI (NCI-H226) was 3.32 µM and the GI50 (SF-539 [2]) was 1.27 µM. For the same compound, the LC50 (concentration killing 50% of cells) (SF-539 [2]) was 5.31 µM, the TGI (SF-539 [2]) was 2.6 µM and the LC50 (concentration killing 50% of cells) (SK-MEL-2) was 6.68 µM. For the same compound, the TGI (SK-MEL-2) was 3.51 µM, the LC50 (UACC-62 [3]) was 5.98 µM and the TGI (UACC-62 [3]) was 3.22 µM. The LC50 (OVCAR-4) was 49.9 µM, the TGI (OVCAR-4) was 16.6 µM and the LC50 (concentration killing 50% of cells) (RXF 393 [4]) was 5.23 µM. It also gave a TGI (RXF 393 [4]) of 2.66 µM, an LC50 (MDA-MB-231) of 6.32 µM and a TGI (MDA-MB-231) of 3.06 µM. The LC50 (concentration killing 50% of cells) (BT-549) was 5.87 µM, the TGI (BT-549) was 2.9 µM and the growth at 0.01 µM (CCRF-CEM [5]) was 95%. The growth at 0.01 µM (SK-OV-3) was 100%, the growth at 0.01 µM (IGROV-1) was 98% and the growth at 0.01 µM (SK-MEL-5) was 97%. For the same compound, the growth at 0.01 µM (Malme-3M [6]) was 95%, the growth at 0.01 µM (TK-10) was 85% and the growth at 0.1 µM (CCRF-CEM [7]) was 94%. For the same compound, the growth at 0.1 µM (HCT-116 [8]) was 100%, the growth at 0.1 µM (HCT-15) was 98% and the growth at 0.1 µM (SNB-19 [9]) was 93%. The growth at 0.1 µM (UACC-257) was 89%, the growth at 0.1 µM (RXF 393 [10]) was 100% and the growth at 1 µM (NCI-H522 [11]) was -63%. For the same compound, the growth at 1 µM (ACHN [12]) was 91%, the growth at 10 µM (NCI-H322M [13]) was -96% and the growth at 10 µM (NCI-H522 [14]) was -95%. It also gave a growth at 10 µM (HCT-116 [15]) of -65%, a growth at 10 µM (SF-539 [16]) of -94% and a growth at 10 µM (SNB-19 [17]) of -80%. It also gave a growth at 10 µM (Malme-3M [18]) of -82%, a growth at 10 µM (UACC-62 [19]) of -92% and a growth at 10 µM (ACHN [20]) of -95%. The growth at 100 µM (HOP-62) was -98%, the growth at 100 µM (NCI-H322M [21]) was -90% and the growth at 100 µM (OVCAR-3) was -84%. It also gave a growth at 100 µM (RXF 393 [22]) of -98%.
